Laboratory results from US20090281054A1, “COMPOSITIONS AND METHODS COMPRISING CAPURAMYCIN ANALOGUES” (priority 2008, published 2009).
≈ marks a conversion by molar mass, not a printed value. Read-outs that look alike come from different tables or passages of the source.

Experiments:
MTB cultures = experiment: Induction of morphological changes and bacterial disintegration; format: cell-based, Mycobacterium tuberculosis; details: for Turbidity of MTB cultures: within 2 days of exposure
Text: Induction of morphological changes and bacterial disintegration. […] Tubercle bacilli exposed to CM analogues were typically club-shaped, with deeply stained swollen ends (see Reddy et al. Antimicrob. Agents Chemother., 2008, 52(2), 719-721).

translocase I = translocase I (Escherichia coli, UniProt P0A6W3); experiment: IC50 against translocase I; format: biochemical
translocase I, sequence (P0A6W3 whole entry): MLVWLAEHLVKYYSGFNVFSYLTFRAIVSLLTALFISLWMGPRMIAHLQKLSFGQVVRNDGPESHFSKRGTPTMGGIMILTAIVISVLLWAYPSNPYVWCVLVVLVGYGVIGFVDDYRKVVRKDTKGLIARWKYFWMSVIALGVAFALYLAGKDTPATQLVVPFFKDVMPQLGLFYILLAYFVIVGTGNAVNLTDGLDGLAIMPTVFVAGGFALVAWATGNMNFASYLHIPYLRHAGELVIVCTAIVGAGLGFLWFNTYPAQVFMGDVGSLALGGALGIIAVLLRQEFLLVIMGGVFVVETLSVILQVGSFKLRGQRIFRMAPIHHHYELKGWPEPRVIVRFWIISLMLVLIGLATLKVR

[1] = system: M. smegmatis (MSMG; MC2155); experiment: MIC by microdilution method in 7H9 broth; format: cell-based; details: MSMG MC^2155, 72 hr
in vitro = format: cell-based; details: mouse
Method: (§1) The SQ997 amino acid derivatives shown in Table 2 were tested for in vitro activity against MTB, cytotoxicity for uninfected J774 cells to determine IC50, and for intracellular activity in the macrophage assay (Table 15). […] Cell viability remained similar to SQ997, or slightly better as cell morphologic changes were reduced.

MTB = experiment: In vivo efficacy in mouse model of chronic TB disease (lung CFU); details: mice treated for 3 wk, starting 3 wk after infection, gav, ip, iv
Method: In vivo activity against MTB. In vivo efficacy of CM analogues was investigated in a mouse model of chronic TB disease (FIG. 2). Three wk after infection, mice were treated for 3 wk with the drugs by gavage (gav), intraperitoneal injection (ip), intravenous injection (iv), or intranasal (in) routes. Efficacy was analyzed by determining Colony-Forming Units (CFU) in lungs. […] Each achieved a decrease of 1-log10 lung CFU compared to the late control [LC] CFU by at least one route, which varied for each drug.

[2] = system: Mycobacterium tuberculosis (MTB); experiment: MIC by BACTEC radiometric method; format: cell-based; details: for MIC90: MTB
Method: Determination of MIC. MIC of drugs for laboratory and clinical strains of Mycobacterium tuberculosis (MTB) was determined by BACTEC radiometric method as described by Heifets (1991), “Antituberculosis Drugs: Antimicrobial Activity in vitro, Drug Susceptibility in the Chemotherapy of Microbacterial Infections, Boca Raton, Fla., CRC Press and Luna-Herrera et al., Antimicrob. Agents and Chemother. 1995, 39(2), 440-444. […] The minimal inhibitory concentration (MIC) was defined as the lowest concentrations of drug that caused GI equal to or less than that of the 1/100 dilution growth control. Capuramycin analogues SQ641, SQ922 and SQ997 were tested at concentrations ranging from […].

MSMG and MTB (H37Rv) = experiment: Minimum bactericidal concentration (MBC), MBC/MIC ratio; format: cell-based, Mycobacterium tuberculosis; M. smegmatis
MTB H37Rv = experiment: MIC by broth microdilution; format: cell-based; details: Mycobacterium tuberculosis
Method: as §1

M. avium complex (MAC) = experiment: MIC by microdilution method in 7H9 broth; format: cell-based; details: Mycobacterium avium; for MIC90: value in square brackets, read-out: MIC90
[3] = system: M. abscessus (MAB; ATCC 700869); experiment: MIC by microdilution method in 7H9 broth; format: cell-based; details: Mycobacteroides abscessus, ATCC700869; MAB 700869; read-out: MIC
[4] = system: M. kansaii (MKN; ATCC12478 & 35775); experiment: MIC by microdilution method in 7H9 broth; format: cell-based, M. kansasii; details: Mycobacterium kansasii, read-out: MIC
MTB inside macrophages = experiment: Intracellular activity of DMSO-solubilized drug in MTB infected macrophages; format: cell-based, Mycobacterium tuberculosis; details: for Mean RLU at Day 7: Day 0 RLU 443, Control Day 7 4251
[5] = Mycolicibacterium smegmatis, MC2155|MC^2155, read-out: MIC
[6] = MAC strain NIH C1-1, read-out: MIC
[7] = MAC strain NIH C1-2, read-out: MIC
[8] = MAC strain NIH C1-3, read-out: MIC
[9] = MAC strain NIH C1-4, read-out: MIC
[10] = ATCC 12478 / ATCC 35775, MKN ATCC35775

CO[C@H]1[C@@H](O)[C@H](n2ccc(=O)[nH]c2=O)O[C@@H]1[C@@H](O[C@H]1OC(C(=O)N[C@H]2CCC[C@@H](C)NC2=O)=C[C@H](O)[C@@H]1O)C(N)=O [SQ997]
Bacterial disintegration / clearance of MTB cultures (MTB cultures): rapid bacterial disintegration
Turbidity of MTB cultures (MTB cultures): marked fall in the turbidity
IC50 against translocase I (translocase I): 0.01 µg/mL (≈ 0.0171 µM)
MIC [1]: 8 µg/mL (≈ 13.7 µM)
MIC [1, 5]: 8 µg/mL (≈ 13.7 µM)
IC50 (in vitro): > 32 µg/mL
Toxicity (4-day IV injections at 1000 mg/kg/day): No toxicity
Routes by which replication of MTB in lungs was prevented (vs early control) (MTB): gav and iv
MIC ([2]; H37RV, MTB strain H37Rv): 8 µg/mL (≈ 13.7 µM)
MIC90 [2]: 16 µg/mL (≈ 27.4 µM)
MIC ([2]; MTB strain 16): 16 µg/mL (≈ 27.4 µM)
MIC ([2]; MTB strain 113): 16 µg/mL (≈ 27.4 µM)
MIC ([2]; MTB strain 158): 8 µg/mL (≈ 13.7 µM)
MIC ([2]; MTB strain 606): 16 µg/mL (≈ 27.4 µM)
MIC ([2]; MTB strain 847): 16 µg/mL (≈ 27.4 µM)
MIC ([2]; MTB strain 1351): 16 µg/mL (≈ 27.4 µM)
MIC ([2]; MTB strain 1407): 16 µg/mL (≈ 27.4 µM)
MIC ([2]; MTB strain 1498): 16 µg/mL (≈ 27.4 µM)
MIC ([2]; MTB strain 1665): 16 µg/mL (≈ 27.4 µM)
MIC ([2]; MTB strain 1703): 16 µg/mL (≈ 27.4 µM)
MIC ([2]; MTB strain 1760): > 16 µg/mL
MIC ([2]; MTB strain 1782): > 16 µg/mL
MIC ([2]; MTB strain 1901): 16 µg/mL (≈ 27.4 µM)
MIC ([2]; MTB strain 1921): 16 µg/mL (≈ 27.4 µM)
MIC ([2]; MTB strain 2224): 16 µg/mL (≈ 27.4 µM)
MIC ([2]; MTB strain 2554): 16 µg/mL (≈ 27.4 µM)
MIC ([2]; MTB strain 2693): 16 µg/mL (≈ 27.4 µM)
MIC ([2]; MTB strain 8266): 8 µg/mL (≈ 13.7 µM)
MIC ([2]; MTB strain 8642): 16 µg/mL (≈ 27.4 µM)
MBC/MIC ratio (MSMG and MTB (H37Rv)): 1
MIC (MTB H37Rv): 8 µg/mL (≈ 13.7 µM)
MIC (M. avium complex (MAC); 336 h, MAC isolates, 2 wk, read-out: MIC (range)): 4 to 32 µg/mL (≈ 6.85 to 54.8 µM)
MIC (M. avium complex (MAC); MAC strain 100, read-out: MIC): 16 µg/mL (≈ 27.4 µM)
MIC (M. avium complex (MAC); MAC strain 101, read-out: MIC): 8 µg/mL (≈ 13.7 µM)
MIC (M. avium complex (MAC); MAC strain 104, read-out: MIC): 16 µg/mL (≈ 27.4 µM)
MIC (M. avium complex (MAC); MAC strain 109, read-out: MIC): 8 µg/mL (≈ 13.7 µM)
MIC (M. avium complex (MAC); MAC strain A5, read-out: MIC): 16 µg/mL (≈ 27.4 µM)
MIC (M. avium complex (MAC); MAC strain JSH1, read-out: MIC): 32 µg/mL (≈ 54.8 µM)
MIC (M. avium complex (MAC); [6]): 8 µg/mL (≈ 13.7 µM)
MIC (M. avium complex (MAC); [7]): 4 µg/mL (≈ 6.85 µM)
MIC (M. avium complex (MAC); [8]): 16 µg/mL (≈ 27.4 µM)
MIC (M. avium complex (MAC); [9]): 8 µg/mL (≈ 13.7 µM)
MIC90 (M. avium complex (MAC); MAC isolates): 16 µg/mL (≈ 27.4 µM)
MIC [3]: 16 µg/mL (≈ 27.4 µM)
MIC [4, 10]: 4 µg/mL (≈ 6.85 µM)
MIC ([4]; MKN ATCC12478): 16 µg/mL (≈ 27.4 µM)

CO[C@H]1[C@@H](O)[C@H](n2ccc(=O)[nH]c2=O)O[C@@H]1[C@@H](O[C@H]1OC(C(=O)Nc2ccc(F)c(F)c2)=C[C@H](O)[C@@H]1O)C(N)=O [SQ922]
Bacterial disintegration / clearance of MTB cultures (MTB cultures): rapid bacterial disintegration
Turbidity of MTB cultures (MTB cultures): marked fall in the turbidity
IC50 against translocase I (translocase I): 0.009 µg/mL (≈ 0.0158 µM)
MIC [1]: 2 µg/mL (≈ 3.51 µM)
MIC [1, 5]: 2 µg/mL (≈ 3.51 µM)
Mean RLU at Day 7 (MTB inside macrophages; 2 μg/ml): 1164 RLU
Mean RLU at Day 7 (MTB inside macrophages; 4 μg/ml): 1080 RLU
Mean RLU at Day 7 (MTB inside macrophages; 8 μg/ml): 1111 RLU
Mean RLU at Day 7 (MTB inside macrophages; 16 μg/ml): 496 RLU
Mean RLU at Day 7 (MTB inside macrophages; 32 μg/ml): 311 RLU
Mean RLU at Day 7 (MTB inside macrophages; 64 μg/ml): 134 RLU
Intracellular activity (FIG. 1) (MTB inside macrophages; 1× and 2× MIC): showed intracellular activities
Toxicity (4-day IV injections at 500 mg/kg/day): No toxicity
Routes by which replication of MTB in lungs was prevented (vs early control) (MTB): most routes
MIC ([2]; H37RV, MTB strain H37Rv): 2 µg/mL (≈ 3.51 µM)
MIC90 [2]: 8 µg/mL (≈ 14 µM)
MIC ([2]; MTB strain 16): 8 µg/mL (≈ 14 µM)
MIC ([2]; MTB strain 113): 2 µg/mL (≈ 3.51 µM)
MIC ([2]; MTB strain 158): 2 µg/mL (≈ 3.51 µM)
MIC ([2]; MTB strain 606): 4 µg/mL (≈ 7.01 µM)
MIC ([2]; MTB strain 847): 4 µg/mL (≈ 7.01 µM)
MIC ([2]; MTB strain 1351): 2 µg/mL (≈ 3.51 µM)
MIC ([2]; MTB strain 1407): 2 µg/mL (≈ 3.51 µM)
MIC ([2]; MTB strain 1498): 4 µg/mL (≈ 7.01 µM)
MIC ([2]; MTB strain 1665): 4 µg/mL (≈ 7.01 µM)
MIC ([2]; MTB strain 1703): 8 µg/mL (≈ 14 µM)
MIC ([2]; MTB strain 1760): 8 µg/mL (≈ 14 µM)
MIC ([2]; MTB strain 1782): 8 µg/mL (≈ 14 µM)
MIC ([2]; MTB strain 1901): 4 µg/mL (≈ 7.01 µM)
MIC ([2]; MTB strain 1921): 4 µg/mL (≈ 7.01 µM)
MIC ([2]; MTB strain 2224): 4 µg/mL (≈ 7.01 µM)
MIC ([2]; MTB strain 2554): 4 µg/mL (≈ 7.01 µM)
MIC ([2]; MTB strain 2693): 4 µg/mL (≈ 7.01 µM)
MIC ([2]; MTB strain 8266): 2 µg/mL (≈ 3.51 µM)
MIC ([2]; MTB strain 8642): 2 µg/mL (≈ 3.51 µM)
MBC/MIC ratio (MSMG and MTB (H37Rv)): 1
MIC (M. avium complex (MAC); MAC strain 100, read-out: MIC): 4 µg/mL (≈ 7.01 µM)
MIC (M. avium complex (MAC); MAC strain 101, read-out: MIC): 1 µg/mL (≈ 1.75 µM)
MIC (M. avium complex (MAC); MAC strain 104, read-out: MIC): 4 µg/mL (≈ 7.01 µM)
MIC (M. avium complex (MAC); MAC strain 109, read-out: MIC): 0.5 µg/mL (≈ 0.876 µM)
MIC (M. avium complex (MAC); MAC strain A5, read-out: MIC): 2 µg/mL (≈ 3.51 µM)
MIC (M. avium complex (MAC); MAC strain JSH1, read-out: MIC): 16 µg/mL (≈ 28 µM)
MIC (M. avium complex (MAC); [6]): > 32 µg/mL
MIC (M. avium complex (MAC); [7]): 1 µg/mL (≈ 1.75 µM)
MIC (M. avium complex (MAC); [8]): 8 µg/mL (≈ 14 µM)
MIC (M. avium complex (MAC); [9]): 2 µg/mL (≈ 3.51 µM)
MIC90 (M. avium complex (MAC); MAC isolates): 16 µg/mL (≈ 28 µM)
MIC [3]: 16 µg/mL (≈ 28 µM)
MIC [4, 10]: 1 µg/mL (≈ 1.75 µM)
MIC ([4]; MKN ATCC12478): 16 µg/mL (≈ 28 µM)
